Test results: ChEMBL document CHEMBL4334525, “Alopecuroides A-E, Matrine-Type Alkaloid Dimers from the Aerial Parts of Sophora alopecuroides” (J Nat Prod, 2019)
Active and inactive are the calls of the source. No cut-off for these calls is given here.

Legend:
[1] = system: RAW264.7; assay: Cytotoxicity against mouse RAW264.7 cells at 50 uM after 24 hrs in presence of 1 ug/ml LPS by MTT assay; format: cell-based; details: raw264.7, 24 h
[2] = system: RAW264.7; assay: Antiinflammatory activity against LPS-stimulated mouse RAW264.7 cells assessed as inhibition of LPS-induced TNFalpha production by measuring TNFalpha level at 50 uM preincubated for 2 hrs followed by LPS treatment and measured after 16 hrs by ELISA (reference value: 100 +/- 0.45%); format: functional
[3] = system: RAW264.7; assay: Cytotoxicity against mouse RAW264.7 cells at 50 uM after 24 hrs by MTT assay; format: cell-based; details: raw264.7, 24 h
[4] = system: RAW264.7; assay: Antiinflammatory activity against LPS-stimulated mouse RAW264.7 cells assessed as inhibition of LPS-induced IL-6 production by measuring IL-6 level at 50 uM preincubated for 2 hrs followed by LPS treatment and measured after 16 hrs by ELISA (reference value: 100 +/- 1.33%); format: functional

`O=C1CCC[C@@H]2[C@H]3CCCN[C@H]3[C@H](CCC[C@H]3C[C@H]4CN5C(=O)CCC[C@@H]5[C@H]5CCCN(C3)[C@@H]45)CN12` was tested, and the Activity [1] was “Non-Toxic”, the “TNFalpha level (% of LPS control)” value [2] was 69.14% and the Activity [3] was “Non-Toxic”. The Activity [4] was “inactive”.

For `O=C1CCC[C@@H]2[C@H]3CC([C@H]4CC[C@H]5CN6C(=O)CCC[C@@H]6[C@H]6CCCN4[C@@H]56)=CN4CCC[C@@H](CN12)[C@@H]34`, the Activity [1] was “Non-Toxic”, the “TNFalpha level (% of LPS control)” value [2] was 49.59% and the Activity [3] was “Non-Toxic”. For the same compound, the Activity [4] was 73.9%.

For `N#C[C@@H]1N2CCC[C@H]3CN4C(=O)CCC[C@@H]4[C@H]([C@H]32)[C@@H]2O[C@]12[C@H]1CC[C@H]2CN3C(=O)CCC[C@@H]3[C@H]3CCCN1[C@@H]23`, the Activity [1] was “Non-Toxic”, the “TNFalpha level (% of LPS control)” value [2] was 50.05% and the Activity [3] was “Non-Toxic”. For the same compound, the Activity [4] was 52.87%.

With `O=C1CCC[C@@H]2[C@H]3CCCN4CC([C@@H]5CC[C@H]6[C@@H]7[C@@H](CCCN75)CN5C(=O)CCC[C@H]65)=C[C@@H](CN12)[C@@H]34` the Activity [1] was “Non-Toxic”, the “TNFalpha level (% of LPS control)” value [2] was 70.86% and the Activity [3] was “Non-Toxic”. The Activity [4] was 60.08%.

For `O=C1CCC[C@@H]2[C@H]3CCCN4CCC[C@@H](CN12)[C@@H]34` [MATRINE], the “TNFalpha level (% of LPS control)” value [2] was 72.48% and the Activity [4] was 65.49%.

In the case of `N#C[C@H]1N2CCC[C@H]3[C@@H]2[C@H](CN2C(=O)CCC[C@H]32)[C@H]2O[C@]21[C@@H]1CC[C@H]2[C@@H]3[C@@H](CCCN31)CN1C(=O)CCC[C@H]21`, the Activity [1] is reported as “Non-Toxic”, the “TNFalpha level (% of LPS control)” value [2] is reported as 96.64% and the Activity [3] is reported as “Non-Toxic”. For the same compound, the Activity [4] was 67.85%.
